# Source: patent US10111435B2, “Herbicidal compositions containing N-(1,3,4-oxadiazol-2-yl)-aryl carboxylic acid amides” (BAYER CROPSCIENCE AKTIENGESELLSCHAFT, priority 2013, dated 2018)
# Assays:
# Assay type in all cases: in vivo
# [1] = test system: Eleusine indica (ELEIN); assay: greenhouse post-emergence herbicidal efficacy against ELEIN; conditions: for pest or weed control at 0.5 g/ha / pest or weed control at 2 g/ha: Eleusine indica, post-emergence; for pest or weed control at 0.5 g/ha: 0.5 g of a.i./ha; for pest or weed control at 2 g/ha: 2 g of a.i./ha
# Procedure: (§1) All trials whose results are shown were conducted in a greenhouse by the methodology specified below. The effect of the inventive herbicidal compositions was examined on the following harmful plants 14 and 21 days after application:
# (§2) Echinochloa crus-galli (ECHCG), Eleusine indica (ELEIN), Setaria viridis (SETVI), Amaranthus retroflexus (AMARE), Chenopodium album (CHEAL), Kochia scoparia (KCHSC), Solanum nigrum (SOLNI), Avena fatua (AVEFA), Bromus sterilis (BROST), Lolium multiflorum (LOLMU), Phalaris minor (PHAMI), Poa annua (POAAN), Galium aparine (GALAP), Matricaria inodora (MATIN) and Polygonum convolvulus (POLCO).
# (§3) The harmful plant seeds were sown in pots (diameter 8 cm) with sandy loam soil and germinated under optimal conditions. The inventive herbicidal compositions or the active ingredients alone were applied post-emergence to the planted pots with a spray volume of 300 L/ha. The trial was conducted in a greenhouse under optimum growth conditions. The herbicidal effects were assessed visually by comparison of untreated and treated plants. The percentages mean: 0%=no effects, 100%=the plants die off completely). The percentages are used to calculate interactions between individual treatments and combination treatments according to S. R. Colby, Weeds 15, pages 20 to 22 (1967).
# (§4) The abbreviations mean: • a.i.=active ingredient • E^C=expected value according to Colby (E^C=A+B−A×B/100) • Diff: =difference (%) of measured value from expected value (%) (measured value minus expected value)
# (§5) Assessment: • measured value E is greater than E^C:->synergism (+ diff.) • measured value E equals E^C:->additive effect • measured value E is smaller than E^C:->antagonism(− diff.)
# [2] = test system: Setaria viridis (SETVI); assay: greenhouse post-emergence herbicidal efficacy against SETVI; conditions: 21 days after application
# Procedure: as §1, §2, §3, §4, §5
# [3] = test system: Kochia scoparia (KCHSC); assay: greenhouse post-emergence herbicidal efficacy against KCHSC
# Procedure: as §1, §2, §3, §4, §5
# [4] = test system: Chenopodium album (CHEAL); assay: greenhouse post-emergence herbicidal efficacy against CHEAL; conditions: 21 days after application
# Procedure: as §1, §2, §3, §4, §5
# [5] = test system: Echinochloa crus-galli (ECHCG); assay: greenhouse post-emergence herbicidal efficacy against ECHCG
# Procedure: as §1, §2, §3, §4, §5
# [6] = test system: Galium aparine (GALAP); assay: greenhouse post-emergence herbicidal efficacy against GALAP
# Procedure: as §1, §2
# as §3, with “completely).” for “completely). The percentages are used to calculate interactions between individual treatments and combination treatments according to S. R. Colby, Weeds 15, pages 20 to 22 (1967).”
# as §4, §5
# [7] = test system: Polygonum convolvulus (POLCO); assay: greenhouse post-emergence herbicidal efficacy against POLCO
# Procedure: as §1, §2
# as §3, with “completely).” for “completely). The percentages are used to calculate interactions between individual treatments and combination treatments according to S. R. Colby, Weeds 15, pages 20 to 22 (1967).”
# as §4, §5
# [8] = test system: Bromus sterilis (BROST); assay: greenhouse post-emergence herbicidal efficacy against BROST
# Procedure: as §1, §2
# as §3, with “completely).” for “completely). The percentages are used to calculate interactions between individual treatments and combination treatments according to S. R. Colby, Weeds 15, pages 20 to 22 (1967).”
# as §4, §5
# [9] = test system: Poa annua (POAAN); assay: greenhouse post-emergence herbicidal efficacy against POAAN
# Procedure: as §1, §2
# as §3, with “completely).” for “completely). The percentages are used to calculate interactions between individual treatments and combination treatments according to S. R. Colby, Weeds 15, pages 20 to 22 (1967).”
# as §4, §5
# [10] = test system: Phalaris minor (PHAMI); assay: greenhouse post-emergence herbicidal efficacy against PHAMI
# Procedure: as §1, §2
# as §3, with “completely).” for “completely). The percentages are used to calculate interactions between individual treatments and combination treatments according to S. R. Colby, Weeds 15, pages 20 to 22 (1967).”
# as §4, §5
# [11] = test system: Lolium multiflorum (LOLMU); assay: greenhouse post-emergence herbicidal efficacy against LOLMU
# Procedure: as §1, §2
# as §3, with “completely).” for “completely). The percentages are used to calculate interactions between individual treatments and combination treatments according to S. R. Colby, Weeds 15, pages 20 to 22 (1967).”
# as §4, §5
# [12] = test system: Matricaria inodora (MATIN); assay: greenhouse post-emergence herbicidal efficacy against MATIN
# Procedure: as §1, §2
# as §3, with “completely).” for “completely). The percentages are used to calculate interactions between individual treatments and combination treatments according to S. R. Colby, Weeds 15, pages 20 to 22 (1967).”
# as §4, §5
# [13] = test system: Avena fatua (AVEFA); assay: greenhouse post-emergence herbicidal efficacy against AVEFA
# Procedure: as §1, §2
# as §3, with “completely).” for “completely). The percentages are used to calculate interactions between individual treatments and combination treatments according to S. R. Colby, Weeds 15, pages 20 to 22 (1967).”
# as §4, §5
# [14] = 336 h, 14 days after application
# [15] = 504 h, 21 days after application
# [16] = 21 days after application, 0.5 g of a.i./ha
# [17] = 21 days after application, 2 g of a.i./ha
# [18] = 14 days after application, 5 g of a.i./ha
# [19] = 21 days after application, g of a.i./ha: A1-3 5, pinoxaden 20
# [20] = 21 days after application, g of a.i./ha: A1-3 20, pinoxaden 5
# [21] = 21 days after application, g of a.i./ha: A1-3 20, pinoxaden 20
# [22] = 14 days after application, 20 g of a.i./ha
# [23] = 14 days after application, 4 g of a.i./ha
# [24] = 21 days after application, 4 g of a.i./ha
# [25] = 14 days after application, 1 g of a.i./ha
# [26] = 21 days after application, 1 g of a.i./ha
# [27] = 14 days after application, g of a.i./ha: A1-57 12.5, aclonifen 200
# [28] = 14 days after application, g of a.i./ha: A1-57 50, aclonifen 200
# [29] = 21 days after application, g of a.i./ha: A1-57 50, aclonifen 800
# [30] = 14 days after application, g of a.i./ha: A1-57 12.5, aclonifen 800
# [31] = 21 days after application, g of a.i./ha: A1-57 12.5, aclonifen 200
# [32] = 14 days after application, g of a.i./ha: A1-57 50, aclonifen 800
# [33] = 21 days after application, g of a.i./ha: A1-57 12.5, aclonifen 800
smiles,measurement,setting,value
CS(=O)(=O)c1ccc(C(=O)C2C(=O)CCCC2=O)c(Cl)c1COCC(F)(F)F [tembotrione],pest or weed control at 0.5 g/ha,[1]; [14],30%
same,pest or weed control at 2 g/ha,[1]; [14],40%
same,pest or weed control at 0.5 g/ha,[1]; [15],0%
same,pest or weed control at 2 g/ha,[1]; [15],10%
same,Efficacy,[2]; 0.5 g of a.i./ha,0%
same,Efficacy,[2]; 2 g of a.i./ha,10%
same,Efficacy,"[3]; 14 days after application, 2 g of a.i./ha",20%
same,Efficacy,[3]; [16],0%
same,Efficacy,[3]; [17],10%
same,Efficacy,[4]; 2 g of a.i./ha,30%
same,Efficacy,"[5]; 14 days after application, 0.5 g of a.i./ha",10%
same,Efficacy,[5]; [16],10%
same,Efficacy,[5]; [17],60%
COCc1nnc(NC(=O)c2ccc(C(F)(F)F)c(S(C)(=O)=O)c2C)o1 [A1-3],Efficacy,[6]; [18],40%
same,Efficacy,[6]; [19],5%
same,Efficacy,[6]; [20],5%
same,Efficacy,[6]; [21],5%
same,Efficacy,[7]; [18],0%
same,Efficacy,[7]; [22],10%
same,Efficacy,[7]; [20],5%
same,Efficacy,[7]; [21],5%
same,Efficacy,[1]; [23],50%
same,Efficacy,[1]; [24],20%
same,Efficacy,[2]; 4 g of a.i./ha,20%
same,Efficacy,[2]; 1 g of a.i./ha,10%
same,Efficacy,[8]; [18],0%
same,Efficacy,[8]; [22],5%
same,Efficacy,[9]; [18],0%
same,Efficacy,[9]; [22],5%
same,Efficacy,[9]; [19],0%
same,Efficacy,[9]; [21],3%
same,Efficacy,[3]; [23],40%
same,Efficacy,[3]; [24],20%
same,Efficacy,[10]; [18],0%
same,Efficacy,[10]; [22],20%
same,Efficacy,[10]; [20],5%
same,Efficacy,[10]; [21],5%
same,Efficacy,[4]; 1 g of a.i./ha,20%
same,Efficacy,[11]; [18],0%
same,Efficacy,[11]; [19],0%
same,Efficacy,[11]; [20],5%
same,Efficacy,[12]; [18],30%
same,Efficacy,[5]; [25],0%
same,Efficacy,[5]; [23],40%
same,Efficacy,[5]; [24],10%
same,Efficacy,[5]; [26],0%
same,Efficacy,[13]; [18],0%
same,Efficacy,[13]; [22],0%
Cc1nnc(NC(=O)c2ccc(S(C)(=O)=O)c(OCCF)c2Cl)o1 [A1-57],Efficacy,[6]; [27],30%
same,Efficacy,[6]; [28],60%
same,Efficacy,[6]; [29],40%
same,Efficacy,[7]; [27],65%
same,Efficacy,[7]; [30],65%
same,Efficacy,[7]; [31],50%
same,Efficacy,[1]; [26],10%
same,Efficacy,[8]; [27],0%
same,Efficacy,[8]; [30],0%
same,Efficacy,[8]; [32],40%
same,Efficacy,[8]; [33],0%
same,Efficacy,[8]; [29],15%
same,Efficacy,[9]; [27],15%
same,Efficacy,[9]; [30],15%
same,Efficacy,[9]; [28],50%
same,Efficacy,[9]; [32],50%
same,Efficacy,[9]; [33],10%
same,Efficacy,"[9]; 21 days after application, g of a.i./ha: A1-57 50, aclonifen 200",35%
same,Efficacy,[9]; [29],35%
same,Efficacy,[3]; [25],40%
same,Efficacy,[3]; [26],20%
same,Efficacy,[10]; [27],50%
same,Efficacy,[10]; [30],50%
same,Efficacy,[10]; [28],70%
same,Efficacy,[10]; [31],20%
same,Efficacy,[10]; [33],20%
same,Efficacy,[4]; 1 g of a.i./ha,30%
same,Efficacy,[11]; [30],0%
same,Efficacy,[11]; [32],35%
same,Efficacy,[12]; [27],60%
same,Efficacy,[12]; [30],60%
same,Efficacy,[12]; [32],85%
same,Efficacy,[12]; [29],80%
same,Efficacy,"[13]; 14 days after application, 12.5 g of a.i./ha",0%
same,Efficacy,"[13]; 14 days after application, 50 g of a.i./ha",0%
same,Efficacy,[13]; [27],0%
same,Efficacy,[13]; [33],0%
CCc1cc(C)cc(CC)c1-c1c(OC(=O)C(C)(C)C)n2n(c1=O)CCOCC2 [pinoxaden],Efficacy,[6]; [22],0%
same,Efficacy,[6]; [19],0%
same,Efficacy,[6]; [20],0%
same,Efficacy,[6]; [21],0%
same,Efficacy,[7]; [18],0%
same,Efficacy,[7]; [22],0%
same,Efficacy,[7]; [20],0%
same,Efficacy,[7]; [21],0%
same,Efficacy,[8]; [18],0%
same,Efficacy,[8]; [22],10%
same,Efficacy,[9]; [18],0%
same,Efficacy,[9]; [22],0%
same,Efficacy,[9]; [19],0%
same,Efficacy,[9]; [21],0%
same,Efficacy,[10]; [18],10%
same,Efficacy,[10]; [22],50%
same,Efficacy,[10]; [20],10%
same,Efficacy,[10]; [21],20%
same,Efficacy,[11]; [22],85%
same,Efficacy,[11]; [19],80%
same,Efficacy,[11]; [20],30%
same,Efficacy,[12]; [22],0%
same,Efficacy,[13]; [18],0%
same,Efficacy,[13]; [22],20%
